Measurements reported in patent US20230390176A1, “Cosmetic Skin and Medical Cream” (Protecta-Skincare, Inc., priority 2021, published 2023).

What was measured:
[1] = disclosed in U.S. Pat. No. 9,045,474; cited from earlier work
human keratinocytes = assay: lifespan of human keratinocytes with YEL002; assay type: cell-based; conditions: application of the active ingredient YEL002

Q: What does the source list for `COc1ccc2cc(-c3nc4ccc(C)cn4c3NCc3ccco3)c(=O)[nH]c2c1` [YEL002]?
A: mitigating tissue damage induced by an agent [1]: effective in mitigating tissue damage; human keratinocytes live longer (anti-aging) (human keratinocytes): 15%
